Measurements from publication PMC8155176, “Reversible modulation of circadian time with chronophotopharmacology” (Nature Communications, 2021).
“Also recorded” adds a separate entry of the source. Like-named read-outs stand apart in the source and are kept apart here.

Columns and labels:
spleen explants = assay: Ex vivo circadian period, spleen explants of Per2::Luc knock-in mice; set-up: species or system mouse; settings: 12 µM
Experimental: Next, we applied the light-dependent period control to the tissue level using explants of Per2::Luc knock-in reporter mice. The mice express PER2-luciferase fusion protein under control of the endogenous Per2 promoter. […] The spleen explants were treated with thermally adapted trans-9, then irradiated with green light (λmax = 530 nm) or kept in dark, and luminescence rhythms were measured (Fig. 6a, b). […] In addition to the peripheral clock in spleen, we investigated the effect of compound 9 on the central clock in the hypothalamic suprachiasmatic nucleus (SCN) that controls behavioral rhythms. […] Together, compound 9 enabled light-dependent inducible control of the circadian period at both cellular and tissue levels.
Fig. 6 Ex vivo photo-modulation of the circadian period in mouse tissue explants. a–c The spleen explants of the Per2::Luc knock-in reporter mice were applied with 12 µM compound 9 and irradiated with green light (λmax = 530 nm) for 0 min (dark, black) or 30 min (green). Luminescence rhythms were then monitored and shown in a (mean of n = 5 for dark and n = 6 for green light). Baseline-subtracted data are shown in b. Period changes compared to a DMSO control are plotted in c. […] Luminescence is given in arbitrary units. n = 5 biologically independent samples for dark and n = 6 for green light. […] Luminescence rhythms of a representative sample for each condition are shown in d. […]

[1] = Chemical stability under dark and irradiation conditions followed by LCMS; assay type: physicochemical; settings: 40 µM in kinase assay buffer or cell culture medium, dark, 365 nm 3 h, 400 nm 30 min
Experimental: LCMS traces of stability studies
Supplementary Figure 8. Chemical stability of compound 3 under dark and irradiation conditions followed by LCMS. All the samples were prepared as 40 µM solution in buffer or cell culture medium. ‘Buffer’ and ‘medium’ samples were injected immediately upon dissolving compound 3, ‘buffer_3h_dark’ was injected after 3 h of keeping the solution in dark, ‘buffer_3h_365nm’ after irradiation of the sample for 3 h with UV light in kinase assay buffer, and ‘medium_30min_400nm’ after 30 min of irradiation with 400 nm in cell culture medium. The trans-isomer was followed at the retention time of 10.41-10.47 min and the cis-isomer at the retention time of 8.84-8.90 min. Mass spectra of both isomers in different […]
(1 picture or pasted object on this page, not shown here)

CKIα = target: T1, CKIα (Homo sapiens, UniProt P48729); assay: In vitro kinase assay (Kinase Glo), CKIα; assay type: biochemical
T1 construct: purchased Invitrogen PV3850
Experimental: A stock solution of 7.4 mM in DMSO was prepared and thermally adapted by heating to c.a. 100 °C for 1 min. Two series of eight samples were prepared with consecutive three-time dilutions from the stock solution. One of the series (‘dark’ samples) was prepared in dark Eppendorf tube, the other series (‘light’ samples) was pre-irradiated with UV light (365 nm, UV lamp Spectroline, ENB-280/FE, 1 × 8 Watt) for 45 min. For compound 9, 1 mM solution in DMSO was thermally adapted by heating to 80 °C for 2 min and split into two vials. One vial was kept in the dark and the other was irradiated with green light (530 nm, 3x Nichia NCSG219B-V1, 3 × 550 mW, Sahlmann Photochemical Solutions) for 60 min. Both dark-kept and irradiated samples were subjected to 8-point 3-fold dilutions. All the solutions were applied to the well plate under a red lamp in the dark room in order to prevent ambient-light-induced photo-isomerization.
The assays were performed on a white, solid-bottom 384-well plates. The total volume for the reaction is 10.5 µl. Firstly, a solution of CKI and peptide was added to the bottom of the well (9 µL). Next, a corresponding solution of the compound (0.5 μL, final 5% DMSO) followed by 50 μM ATP solution (1 μL) were pipetted into the upper corners of each well. The enzymatic reaction was started by spinning down the plate (1800 x g, 2 min).
By employing this method, all reactions were started at the same time, minimizing variance between different samples. Incubation for 3 h at 30 °C or 2 h at 37 °C allowed for the enzymatic phosphorylation of the substrate peptide. As the reaction started, the wells with ‘light’ samples were irradiated with UV light or kept in dark in case of experiment with compound 9. ‘Dark’ (0 min pre-irradiation) wells were covered with an aluminum sticker from the beginning. After the incubation, 10 μL Kinase Glo® (Promega) was applied into the wells and the luminescent signal was recorded by a plate reader (BioTek Synergy H1 or Cytation).
The total volume for the reaction was 10.5 µl. The reaction mixture contained the following: for CKIδ, 4 ng/µl CKIδ (14-520, Eurofins), 50 µM peptide substrate RKKKAEpSVASLTSQCSYSS corresponding to human PER2 Lys659-Ser674, and CKI buffer (40 mM Tris, 10 mM MgCl2, 0.5 mM DTT, 0.1 mg/ml BSA, pH7.4); for CKIα, 1 ng/µl CKIα (PV3850, Invitrogen), 50 µM CKI peptide substrate (60547-1, Anaspec), and CKI buffer.
The data obtained from the in vitro kinase assay was analyzed using GraphPad software, in which the luminescence outcome is normalized. Normalization is done using a luminescent output of the control that contained high concentration of longdaysin (370 µM) as 100% inhibition and DMSO for 0% inhibition. In all graphs, a dose-response fit was used to obtain

[2] = thermally adapted trans-isomer kept in the dark, read-out: CKIα IC50, dark

T1 sequence (P48729 whole entry): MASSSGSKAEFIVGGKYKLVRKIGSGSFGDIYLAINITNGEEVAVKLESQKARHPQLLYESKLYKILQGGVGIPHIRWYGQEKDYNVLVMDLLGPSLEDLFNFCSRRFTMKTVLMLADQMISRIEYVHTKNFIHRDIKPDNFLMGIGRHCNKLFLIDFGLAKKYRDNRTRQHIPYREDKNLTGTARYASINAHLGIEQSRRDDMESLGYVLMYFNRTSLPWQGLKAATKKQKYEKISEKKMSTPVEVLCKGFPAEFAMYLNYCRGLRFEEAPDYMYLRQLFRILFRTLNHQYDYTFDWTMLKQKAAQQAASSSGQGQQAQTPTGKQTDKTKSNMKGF

Row | Structure (SMILES) | period effect after green light irradiation (spleen explants; 530 nm 30 min) | period effect vs DMSO control, dark (spleen explants; dark) | chemical stability (reduction or oxidation of the azo group) [1] | potency relative to longdaysin (CKIα; CKI activity) | fold difference in CKIα IC50 between trans-form and cis-isomer (CKIα; green light 530 nm vs dark) | IC50 (CKIα; pre-irradiated with green light (530 nm), 86% cis, read-out: CKIα IC50, 530 nm) | IC50 (CKIα; [2]) | IC50 (CKIα; irradiated with UV light (365 nm) before and during the assay, cis-enriched, read-out: CKIα IC50, light) | fold difference in CKIα inhibition between dark and UV-irradiated sample (CKIα; trans vs cis-enriched (365 nm), 5 is stronger under light, the others weaker)
1 | CC(C)n1cnc2c(NCc3ccc(F)c(/N=N/c4c(F)cccc4F)c3F)ncnc21 [Compound 9] | suppressed the period-lengthening effect | period lengthening | Products of reduction or oxidation were not | comparable to that of longdaysin | 1.5 fold | 8.2 µM | 5.3 µM | – | –
2 | Cc1nn(C)c(C)c1/N=N/c1cccc(CNc2ncnc3c2ncn3C(C)C)c1 [Compound 8] | – | – | Products of reduction or oxidation were not observed; also recorded: no observable reduction or oxidation | – | – | – | 3 µM | 24 µM | 8 fold
